Test results: patent publication US20120040930A1, “TETRACYCLIC TERPENE SERIES COMPOUNDS, METHODS FOR PREPARING SAME, USES THEREOF AS MEDICINES AND PHARMACEUTICAL COMPOUNDS CONTAINING SAME” (priority 2005, published 2012)
pIC50: −log10 of the molar value.

The molecules below were run against T1, acetylcholinesterase (AChE) isolated from Electrophorus electricus (Electrophorus electricus, UniProt O42275) (assay: biochemical). Conditions: AChE IC50.
T1 construct: AChE isolated from Electrophorus electricus; from tissue
T1 sequence (O42275 24-633): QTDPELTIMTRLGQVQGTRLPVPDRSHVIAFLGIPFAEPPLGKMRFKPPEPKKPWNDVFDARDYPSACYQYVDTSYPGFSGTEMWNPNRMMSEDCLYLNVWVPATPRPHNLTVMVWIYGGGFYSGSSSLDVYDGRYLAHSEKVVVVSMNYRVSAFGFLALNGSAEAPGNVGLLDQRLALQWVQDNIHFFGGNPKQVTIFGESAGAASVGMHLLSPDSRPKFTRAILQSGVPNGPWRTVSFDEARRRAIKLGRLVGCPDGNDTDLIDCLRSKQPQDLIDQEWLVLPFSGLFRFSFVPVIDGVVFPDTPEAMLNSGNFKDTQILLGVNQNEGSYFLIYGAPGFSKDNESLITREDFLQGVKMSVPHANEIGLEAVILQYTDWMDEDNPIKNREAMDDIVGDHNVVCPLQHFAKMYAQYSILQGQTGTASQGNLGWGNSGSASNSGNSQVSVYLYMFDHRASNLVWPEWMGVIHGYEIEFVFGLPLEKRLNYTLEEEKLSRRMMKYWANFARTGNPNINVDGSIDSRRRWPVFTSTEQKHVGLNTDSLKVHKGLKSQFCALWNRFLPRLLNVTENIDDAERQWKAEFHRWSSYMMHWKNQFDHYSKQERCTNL
In the case of `CCC(C)C(=O)N[C@H]1CC=C2C[C@H]3C(=O)C[C@]4(C)[C@@H]([C@H](C)N(C)C)[C@H](O)C[C@@]4(C)[C@@H]3CC[C@H]2[C@]1(C)CO` (mixture of isomers) [Compound 7h, (20S)-10(9->1)abeo-4α-hydroxymethyl-4,14α-dimethyl-20-dimethylamino-3 (2-methylbutyrylamino)-5α,9-pregn-1(10)-en-16α-ol-11-one], the pIC50 was 6.92. With `CC(C)C(=O)NC1CC[C@]23CC24C(=O)C[C@]2(C)[C@@H]([C@H](C)N(C)C)[C@H](O)C[C@@]2(C)[C@@H]4CC[C@H]3[C@]1(C)CO` (stereo in doubt) [Compound 2, (20S)-3-isobutyrylamino-9,19-cyclo-4α-hydroxymethyl-4,14α-dimethyl-20-dimethylamino-5α,9-pregnan-16α-ol-11-one] the pIC50 was less than 5.00. In the case of `CC[C@H](C)C(=O)N[C@H]1CC=C2C[C@H]3C(=O)C[C@]4(C)[C@@H]([C@H](C)N(C)C)[C@H](OC(C)=O)C[C@@]4(C)[C@@H]3CC[C@H]2[C@]1(C)CO` [Compound 65], the pIC50 was 5.10.

Same assay, conditions: AChE isolated from Electrophorus electricus; read-out: AChE IC50
For `CCC(C)C1=N[C@H]2CC=C3C[C@H]4C(=O)C[C@]5(C)[C@@H]([C@H](C)N(C)C)[C@H](O)C[C@@]5(C)[C@@H]4CC[C@H]3[C@]2(C)CO1` (mixture of isomers) [Compound 8h, (20S)-10(9->1)abeo-4,14α-dimethyl-20-dimethylamino(2′-(1-methylpropyl)-4′,4′ dihydro[3′,1′]oxazin)-5α,9-pregn-1(10)-en-16α-ol-11-one], the pIC50 was 7.57. `CC(C)C(=O)N[C@H]1CCC23C[C@]24C(=O)C[C@]2(C)[C@@H]([C@H](C)N(C)C)[C@H](O)C[C@@]2(C)[C@@H]4CC[C@H]3[C@]1(C)CNC([Si](C)(C)C)[Si](C)(C)C` (stereo partly drawn) [Compound 55, (20S)-3β-isobutyrylamino-20-dimethylamino-9,19-cyclo-4β,14α-dimethyl-4α-(bis-(trimethylsilanyl)methylamino)methyl-5α,9β-pregnan-16α-ol-11-one] showed a pIC50 of less than 4.00. `CC(C)C(=O)N[C@H]1CCC23C[C@]24C(=O)C[C@]2(C)[C@@H]([C@H](C)N(C)C)[C@H](OC(=O)C(C)(C)C)C[C@@]2(C)[C@@H]4CC[C@H]3[C@]1(C)CNC([Si](C)(C)C)[Si](C)(C)C` (stereo partly drawn) [Compound 56, (20S)-3β-isobutyrylamino-20-dimethylamino-9,19-cyclo-4β,14α-dimethyl-4α-(bis-(trimethylsilanyl)methylamino)methyl-16α-pivalyl-5α,9β-pregnan-11-one] gave a pIC50 of less than 4.00. For `CC(C)C(=O)N[C@H]1CCC23C[C@]24C(=O)C[C@]2(C)[C@@H]([C@H](C)N(C)C)[C@H](O[Si](C)(C)C(C)(C)C)C[C@@]2(C)[C@@H]4CC[C@H]3[C@]1(C)CNC([Si](C)(C)C)[Si](C)(C)C` (stereo partly drawn) [Compound 57, (20S)-3β-isobutyrylamino-20-dimethylamino-9,19-cyclo-4β,14α-dimethyl-4α-(bis-(trimethylsilanyl)methylamino)methyl-16α-(tert-butyl-dimethyl-silanyloxy)-5α,9β-pregnan-11-one], the pIC50 was less than 4.00. Work on `CC[C@H](C)C(=O)N[C@H]1CCC23C[C@]24C(=O)C[C@]2(C)[C@@H]([C@H](C)N(C)C)[C@H](OC(C)=O)C[C@@]2(C)[C@@H]4CC[C@H]3[C@]1(C)C=O` (stereo partly drawn) [Compound 59, (20S)-16α-acetyl-3β-((S)-2-methylbutyrylamino)-20-dimethylamino-9,19-cyclo-4α-formyl-4β,14α-dimethyl-5α,9β-pregnan-11-one] yielded a pIC50 of less than 4.00. `CC[C@H](C)C(=O)N[C@H]1CCC23C[C@]24C(=O)C[C@]2(C)[C@@H]([C@H](C)N(C)C)[C@H](O)C[C@@]2(C)[C@@H]4CC[C@H]3[C@]1(C)C=O` (stereo partly drawn) [Compound 60, (20S)-20-dimethylamino-3β-((S)-2-methylbutyrylamino)-9,19-cyclo-4α-formyl-4β,14α-dimethyl-5α,9β-pregnan-16α-ol-11-one] showed a pIC50 of less than 4.00. In the case of `CC[C@H](C)C(=O)N[C@H]1CCC23C[C@]24C(=O)C[C@]2(C)[C@@H]([C@H](C)N(C)C)[C@H](O)C[C@@]2(C)[C@@H]4CC[C@H]3[C@]1(C)/C=N/Cc1ccccc1` (stereo partly drawn) [Compound 61, (20S)-20-dimethylamino-3β-((S)-2-methylbutyrylamino)-9,19-cyclo-4α-benzyliminomethyl-4β,14α-dimethyl-5α,9β-pregnan-16α-ol-11-one], the pIC50 was less than 4.00. Work on `CC[C@H](C)C(=O)N[C@H]1CCC23C[C@]24C(=O)C[C@]2(C)[C@@H]([C@H](C)N(C)C)[C@H](O)C[C@@]2(C)[C@@H]4CC[C@H]3[C@]1(C)CNCc1ccccc1` (stereo partly drawn) [Compound 62, (20S)-20-dimethylamino-3β-((S)-2-methylbutyrylamino)-9,19-cyclo-4α-benzylaminomethyl-4β,14α-dimethyl-5α,9β-pregnan-16α-ol-11-one] yielded a pIC50 of no more than 4.00. `CC[C@H](C)C(=O)N[C@H]1CCC23C[C@]24C(=O)C[C@]2(C)[C@@H]([C@H](C)N(C)C)[C@H](O)C[C@@]2(C)[C@@H]4CC[C@H]3[C@]1(C)CN` (stereo partly drawn) [Compound 63, (20S)-20-dimethylamino-3β-((S)-2-methylbutyrylamino)-9,19-cyclo-4α-aminomethyl-4β,14α-dimethyl-5α,9β-pregnan-16α-ol-11-one] showed a pIC50 of 6.20. Work on `CCC(C)C1=NC2CCC34C[C@]35C(=O)C[C@]3(C)[C@@H]([C@H](C)N(C)C)[C@H](O)C[C@@]3(C)[C@@H]5CC[C@H]4[C@]2(C)CN1` (stereo partly drawn) [Compound 64, (20S)-20-dimethylamino-9,19-cyclo-4β,14α-dimethyl-(2-(S)-sec-butyl-5β-methyl-1,4,5,6-tetrahydro-pyrimidin-5-yl)-5α,9β-pregnan-16α-ol-11-one] yielded a pIC50 of 7.85. `CC[C@H](C)C(=O)N[C@H]1CC=C2C[C@H]3C(=O)C[C@]4(C)[C@@H]([C@H](C)N(C)C)[C@H](OC(C)=O)C[C@@]4(C)[C@@H]3CC[C@H]2[C@]1(C)C=O` [Compound 66] was tested, and the pIC50 was less than 4.00. In the case of `CC[C@H](C)C(=O)N[C@H]1CC=C2C[C@H]3C(=O)C[C@]4(C)[C@@H]([C@H](C)N(C)C)[C@H](O)C[C@@]4(C)[C@@H]3CC[C@H]2[C@]1(C)C=O` [Compound 67, (20S)-10(9->1)-abeo-20-dimethylamino-3-((S)-2-methylbutyrylamino)-4α-formyl-4β,14α-dimethyl-5α,9β-pregn-1(10)-en-16α-ol-11-one], the pIC50 was less than 4.00. Work on `CC[C@H](C)C(=O)N[C@H]1CC=C2C[C@H]3C(=O)C[C@]4(C)[C@@H]([C@H](C)N(C)C)[C@H](O)C[C@@]4(C)[C@@H]3CC[C@H]2[C@]1(C)CNCc1ccccc1` [Compound 69, (20S)-10(9->1)abeo-20-dimethylamino-3β-((S)-2-methylbutyrylamino)-4α-benzylaminomethyl-4β,14α-dimethyl-5α,9β-pregn-1(10)-en-16α-ol-11-one] yielded a pIC50 of less than 4.00. For `CC(C)C(=O)N[C@H]1CC[C@]23CC24C(=O)C[C@]2(C)[C@@H]([C@H](C)N(C)C)[C@H](O)C[C@@]2(C)[C@@H]4CC[C@H]3[C@]1(C)CS` (stereo partly drawn) [Compound 76], the pIC50 was 4.37. “(20S)-3β-isobutyrylamino-20-methylamino-9,19-cyclo-4α-benzylaminomethyl-4β,14α-dimethyl-16α-pivalyl-5α,9β-pregnan-11-one [Compound 48]” was tested, and the pIC50 was 4.76.

Same assay, conditions: read-out: AChE IC50
`CC[C@H](C)C(=O)N[C@H]1CC=C2C[C@H]3C(=O)C[C@]4(C)[C@@H]([C@H](C)N(C)C)[C@H](O)C[C@@]4(C)[C@@H]3CC[C@H]2[C@]1(C)/C=N/Cc1ccccc1` [Compound 68, (20S)-10(9->1)-abeo-20-dimethylamino-3-((S)-2-methylbutyrylamino)-4α-benzyliminomethyl-4β,14α-dimethyl-5α,9β-pregn-1(10)-en-16α-ol-11-one] gave a pIC50 of 6.11. Molecule `CC[C@H](C)C(=O)N[C@H]1CC=C2C[C@H]3C(=O)C[C@]4(C)[C@@H]([C@H](C)N(C)C)[C@H](O)C[C@@]4(C)[C@@H]3CC[C@H]2[C@]1(C)CN` [Compound 70, (20S)-10(9->1)-abeo-20-dimethylamino-3-((S)-2-methylbutyrylamino)-4α-aminomethyl-4β,14α-dimethyl-5α,9β-pregn-1(10)-en-16α-ol-11-one] has a pIC50 of 6.43. `CC[C@H](C)C1=N[C@H]2CC=C3C[C@H]4C(=O)C[C@]5(C)[C@@H]([C@H](C)N(C)C)[C@H](O)C[C@@]5(C)[C@@H]4CC[C@H]3[C@]2(C)CN1` [Compound 71, (20S)-10(9->1)-abeo-20-dimethylamino-4β,14α-dimethyl-(2-(S)-sec-butyl-5β-methyl-1,4,5,6-tetrahydro-pyrimidin-5-yl)-5α,9β-pregnan-1(10)-en-16α-ol-11-one] showed a pIC50 of 7.55.

The molecules below were run against T2, human serum butyrylcholinesterase (BChE) (Homo sapiens, UniProt P06276) (assay: biochemical). Conditions: human serum BChE; read-out: BChE.
T2 construct: BChE isolated from human serum; from tissue; host or cells: human serum
T2 sequence (P06276 29-602): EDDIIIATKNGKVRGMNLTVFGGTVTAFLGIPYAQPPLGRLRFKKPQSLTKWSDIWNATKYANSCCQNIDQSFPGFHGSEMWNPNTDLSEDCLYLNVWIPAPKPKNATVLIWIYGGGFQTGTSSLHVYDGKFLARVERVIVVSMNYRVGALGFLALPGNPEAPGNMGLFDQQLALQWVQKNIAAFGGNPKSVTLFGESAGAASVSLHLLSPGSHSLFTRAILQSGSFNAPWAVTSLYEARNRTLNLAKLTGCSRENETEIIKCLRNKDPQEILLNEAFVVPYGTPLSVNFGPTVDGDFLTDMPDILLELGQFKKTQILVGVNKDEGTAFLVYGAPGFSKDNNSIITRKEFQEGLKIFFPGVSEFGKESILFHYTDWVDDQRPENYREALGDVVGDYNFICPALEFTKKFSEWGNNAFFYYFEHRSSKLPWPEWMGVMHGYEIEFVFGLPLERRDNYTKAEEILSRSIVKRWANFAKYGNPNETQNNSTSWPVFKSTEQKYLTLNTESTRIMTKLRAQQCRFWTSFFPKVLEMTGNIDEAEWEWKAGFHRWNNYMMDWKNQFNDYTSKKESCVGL
`CCC(C)C(=O)N[C@H]1CC=C2C[C@H]3C(=O)C[C@]4(C)[C@@H]([C@H](C)N(C)C)[C@H](O)C[C@@]4(C)[C@@H]3CC[C@H]2[C@]1(C)CO` (mixture of isomers) [Compound 7h, (20S)-10(9->1)abeo-4α-hydroxymethyl-4,14α-dimethyl-20-dimethylamino-3 (2-methylbutyrylamino)-5α,9-pregn-1(10)-en-16α-ol-11-one] was tested, and the pIC50 was 5.72. Work on `CCC(C)C1=N[C@H]2CC=C3C[C@H]4C(=O)C[C@]5(C)[C@@H]([C@H](C)N(C)C)[C@H](O)C[C@@]5(C)[C@@H]4CC[C@H]3[C@]2(C)CO1` (mixture of isomers) [Compound 8h, (20S)-10(9->1)abeo-4,14α-dimethyl-20-dimethylamino(2′-(1-methylpropyl)-4′,4′ dihydro[3′,1′]oxazin)-5α,9-pregn-1(10)-en-16α-ol-11-one] yielded a pIC50 of 5.81. `CC(C)C(=O)NC1CC[C@]23CC24C(=O)C[C@]2(C)[C@@H]([C@H](C)N(C)C)[C@H](O)C[C@@]2(C)[C@@H]4CC[C@H]3[C@]1(C)CO` (stereo in doubt) [Compound 2, (20S)-3-isobutyrylamino-9,19-cyclo-4α-hydroxymethyl-4,14α-dimethyl-20-dimethylamino-5α,9-pregnan-16α-ol-11-one] gave a pIC50 of less than 5.00. In the case of `CC(C)C(=O)N[C@H]1CC=C2C[C@H]3C(=O)C[C@]4(C)[C@@H]([C@H](C)N(C)C)[C@H](O)C[C@@]4(C)[C@@H]3CC[C@H]2[C@]1(C)CO` [Compound 3, (20S)-10(9->1)abeo-4α-hydroxymethyl-3-isobutyrylamino-4,14α-dimethyl-20-dimethylamino-5α,9-pregn-1(10)-en-16α-ol-11-one], the pIC50 was 5.13. With `C[C@@H]([C@H]1[C@H](O)C[C@@]2(C)[C@@H]3CC[C@@H]4C(=CC[C@@H]5N=C(Cc6ccccc6)OC[C@]54C)C[C@H]3C(=O)C[C@]12C)N(C)C` [Compound 8g, (20S)-10(9->1)abeo-4,14α-dimethyl-20-dimethylamino-(2′-(1-benzyl)-4′,4′-dihydro[3′,1′]oxazine)-5α,9-pregn-1(10)-en-16α-ol-11-one] the pIC50 was less than 5.00. For `CCC(CC)C1=N[C@H]2CC=C3C[C@H]4C(=O)C[C@]5(C)[C@@H]([C@H](C)N(C)C)[C@H](O)C[C@@]5(C)[C@@H]4CC[C@H]3[C@]2(C)CO1` [Compound 8i, (20S)-10(9->1)abeo-4,14α-dimethyl-20-dimethylamino(2′-(1-ethylpropyl)-4′,4′-dihydro[3′,1′]oxazin)-5α,9-pregn-1(10)-en-16α-ol-11-one], the pIC50 was 6.42.
